Test results reported in patent US8569504B2, “Imidazopyridine compound” (Ono Pharmaceutical Co., Ltd., priority 2009, dated 2013).

Key:
[1] = Measurement of cell toxicity using HepG2 human liver cancer cell lines (ATP, Celltiter Glo); format: cell-based; details: human, HepG2 cells; 24 hours of exposure, ATP concentration
Procedure: (§1) The cells were then exposed to the compound of the present invention and the comparative compounds for 24 hours. The compound of the present invention and the comparative compounds were dissolved with DMSO, and then diluted 100 times with culture liquid comprising L-glutamine, non-essential amino acids and 1% bovine fetal serum which were added to minimum essential medium (MEM). […] The cells were dissolved with the assay buffer in the measurement kit, and the ATP concentration released from the cells was measured based on luciferin-luciferase enzyme activity. Light emission was measured with a SpectraMax plate reader (Molecular Device).

[2] = tested on: HepG2 human liver cancer cell lines; assay: as above; format: cell-based; details: 24 hours of exposure, ATP concentration; concentration that produced toxicity in 10% of cells
Procedure: as §1

Human chymase = biological target: T1, Human chymase (Homo sapiens, UniProt P23946); assay: Measurement of human chymase enzyme inhibitory activity; format: biochemical; details: for IC90: concentration at which 90% of enzyme activity was inhibited; for IC50: peptide substrate N-Succinyl-Ala-Ala-Pro-Phe-p-nitroanilide 2.5 mmol/L, 37° C., pH 7.6
T1 construct: purchased East Coast Biologics
T1 sequence (P23946 22-247): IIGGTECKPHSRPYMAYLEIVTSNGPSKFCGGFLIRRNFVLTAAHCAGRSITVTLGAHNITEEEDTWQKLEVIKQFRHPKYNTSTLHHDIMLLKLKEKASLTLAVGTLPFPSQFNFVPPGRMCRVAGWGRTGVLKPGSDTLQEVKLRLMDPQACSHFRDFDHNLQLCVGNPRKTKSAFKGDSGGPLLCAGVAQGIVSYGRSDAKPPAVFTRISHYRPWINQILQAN
Procedure: Human Chymase Pure (hereunder called chymase; East Coast Biologics) was stored in a freezer at −20° C., and diluted with distilled water immediately prior to use. N-Succinyl-Ala-Ala-Pro-Phe-p-nitroanilide (hereunder called the peptide substrate; Sigma Aldrich) was prepared with dimethylsulfoxide (hereunder called DMSO) as a 50 mmol/L solution, and stored in a freezer at −20° C. The compound of the present invention and the comparative compounds were prepared with DMSO as 10 mmol/L solutions, and stored in a freezer at −20° C. On the day of measurement, the solutions of the compound of the present invention and the comparative compound were diluted in stages with 50% DMSO to 10 times concentration of the final target concentration, and the solution were prepared. 10 μL solutions of the compounds of the present invention and the comparative compounds, and 80 μL solution of a peptide substrate (final concentration 2.5 mmol/L) diluted with assay buffer (50 mmol/L Tris-HCl, 150 mmol/L NaCl, 50 units/mL heparin (pH 7.6)) were added to a 96-well microplate, incubated for 10 minutes at 37° C. 10 μL of chymase was added to a final concentration of 0.1 μg/L to initiate enzyme activity. Absorbance at 405 nm was monitored for 5 minutes at 30-second intervals, and the reaction speed (Δm O.D./minute) was measured. 10 μL of 50% DMSO was added to the control well and blank well in place of the solutions of the compound of the present invention and the comparative compound. Moreover, 10 μL of distilled water was added to the blank well in place of chymase. Given 100% as the value of the control well reaction speed minus the blank well reaction speed, the reaction speeds of the wells containing the compound of the present invention and the comparative compounds were calculated as percentages.

[3] = Stability experiment using human liver microsomes; format: in vitro ADME; details: 5 μmol/L, 0.5 mg/mL human liver microsomes with NADPH, 15 minutes, 37° C.
Procedure: 5 μL of the compound of the present invention and each comparative compound (10 mmol/L DMSO solution) was diluted with 195 μL of 50% acetonitrile aqueous solution to prepare 250 μmol/L solutions of the compound of the present invention and comparative compound. 245 μL of 0.5 mg/mL human liver microsomes (0.1 mol/L pH 7.4 phosphate buffer solution) containing NADPH Co factor (NADPH Regenerating System Solution A (BD Bioscience) and NADPH Regenerating System Solution B (BD Bioscience), each diluted 10 times and 50 times with 0.1 mol/L pH 7.4 phosphate buffer (NADP+2.6 mmol/L)) were added to a reaction container that had been warmed in advance to 37° C. in a water bath, and pre-incubated for 5 minutes, after which 5 μL solution of the compound of the present invention and the comparative compound was added to initiate a reaction (final concentration 5 μmol/L). Immediately after initiation 20 μL was collected, and 20 μL was added to 180 μL of acetonitrile containing I.S. (internal standard (warfarin)) to terminate the reaction. 180 μL of 50% acetonitrile aqueous solution was added to this 20 μL on a plate with a protein exclusion filter, stirred and filtered by suction. The filtrate was used as a standard sample. After incubating the reaction solution for 15 minutes, 20 μL of a liver microsome solution was collected, and added to 180 μL of acetonitrile containing I.S. (internal standard (warfarin)) in order to terminate the reaction. 180 μL of 50% acetonitrile aqueous solution was added to this 20 μL on a plate with a protein exclusion filter, stirred and filtered by suction. The filtrate was used as a reaction sample. The survival ratio (%) was calculated by injecting 5 μL of sample solution into a LC-MS/MS (Thermo Scientific Discovery Max), dividing the peak area ratio of the reaction sample (the compound of the present invention and the comparative compound/I.S.) by the peak area ratio of the standard sample, and multiplying by 100.

Question: What does the source list for Cc1cccc2scc(Cn3c(SCCCC(=O)O)nc4ccccc43)c12 [Comparative Compound 1, 4-(1-((4-methylbenzothiophen-3-yl)methyl)benzimidazol-2-ylthio)butanoic acid, reference compound]?
Answer: IC50 at 24 h [1]: 81000 nM; Cell toxicity in HepG2 human liver cancer cell lines IC10 [2]: 45000 nM

Question: Which results are given for Cc1cccc2scc(Cc3c(SCCCC(=O)O)nc4ccccn34)c12 [Comparative Compound 2, 4-[3-(4-methyl-benzo[b]thiophen-3-ylmethyl)-imidazo[1,2-a]pyridin-2-ylsulfanyl]butanoic acid, reference compound]?
Answer: IC50 at 24 h [1]: 219000 nM; Cell toxicity in HepG2 human liver cancer cell lines IC10 [2]: 66000 nM; IC90 (Human chymase): 2800 nM; IC50 (Human chymase): 340 nM

Question: Which IC50 at 24 h [1] does the source give for O=C(O)c1ccccc1Sc1nc2ccccc2n1Cc1cccc2ccccc12 [Comparative Compound 3, 2-{[1-(1-naphthylmethyl)-1H-benzimidazol-2-yl]thio}benzoic acid, reference compound] here?
Answer: 40000 nM

Question: What about the “Cell toxicity in HepG2 human liver cancer cell lines IC10” value (shortened to “Cell toxicity”) [2] of the same compound?
Answer: 29000 nM

Question: What about the IC90 (Human chymase) of the same compound?
Answer: 1600 nM

Question: What about the IC50 (Human chymase) of the same compound?
Answer: 130 nM

Question: What does the source list for Cc1cccc2c1c(Cn1c(Sc3ccccc3C(=O)O)nc3ccccc31)cn2C [Comparative Compound 4, 2-([1-[(1,4-dimethyl-1H-indol-3-yl)methyl]-1H-benzimidazol-2-yl]thio)benzoic acid, reference compound]?
Answer: IC50 at 24 h [1]: 84000 nM; Cell toxicity in HepG2 human liver cancer cell lines IC10 [2]: 53000 nM; IC90 (Human chymase): 790 nM; IC50 (Human chymase): 75 nM

Question: Which results are given for Cc1cccc2[nH]cc(Cc3c(-c4ccc5ccccc5c4C(=O)O)nc4ccccn34)c12 [Example 7, 2-[3-[(4-methyl-1H-indol-3-yl)methyl]imidazo[1,2-a]pyridin-2-yl]-1-naphthoic acid]?
Answer: IC50 at 24 h [1]: 132000 nM; Cell toxicity in HepG2 human liver cancer cell lines IC10 [2]: 58000 nM; IC90 (Human chymase): 63 nM; IC50 (Human chymase): 1 nM; Human liver Ms stability (survival ratio) [3]: 93%

Question: For Cc1ccc2nc(-c3ccccc3C(=O)O)c(Cc3cn(C)c4cccc(C)c34)n2c1 [Example 11, 2-{3-[(1,4-dimethyl-1H-indol-3-yl)methyl]-6-methylimidazo[1,2-a]pyridin-2-yl}benzoic acid], which IC50 at 24 h [1] is on record?
Answer: > 400000 nM

Question: What about the “Cell toxicity” value [2] of the same compound?
Answer: 248000 nM

Question: What about the IC90 (Human chymase) of the same compound?
Answer: 270 nM

Question: What about the IC50 (Human chymase) of the same compound?
Answer: 23 nM

Question: And the “Human liver Ms stability (survival ratio)” value [3]?
Answer: 86%

Question: Which IC50 at 24 h [1] does the source give for Cc1cccc2c1c(Cc1c(-c3ccccc3C(=O)O)nc3ccccn13)cn2C [Example 13, 2-{3-[(1,4-dimethyl-1H-indol-3-yl)methyl]imidazo[1,2-a]pyridin-2-yl}benzoic acid] here?
Answer: 424000 nM

Question: What about the “Cell toxicity” value [2] of the same compound?
Answer: 135000 nM

Question: And the IC90 (Human chymase)?
Answer: 200 nM

Question: And the IC50 (Human chymase)?
Answer: 28 nM

Question: What about the “Human liver Ms stability (survival ratio)” value [3] of the same compound?
Answer: 93%

Question: What does the source list for CCn1cc(Cc2c(-c3ccccc3C(=O)O)nc3ccccn23)c2c(C)cccc21 [Example 15, 2-{3-[(1-ethyl-4-methyl-1H-indol-3-yl)methyl]imidazo[1,2-a]pyridin-2-yl}benzoic acid]?
Answer: IC50 at 24 h [1]: 267000 nM; Cell toxicity in HepG2 human liver cancer cell lines IC10 [2]: 115000 nM; IC90 (Human chymase): 240 nM; IC50 (Human chymase): 30 nM; Human liver Ms stability (survival ratio) [3]: 87%

Question: What does the source list for Cc1cccc2[nH]cc(Cc3c(-c4ccc5ccccc5c4C(=O)O)nc4ccc(F)cn34)c12 [Example 16, 2-{6-fluoro-3-[(4-methyl-1H-indol-3-yl)methyl]imidazo[1,2-a]pyridin-2-yl}-1-naphthoic acid]?
Answer: IC50 at 24 h [1]: 131000 nM; Cell toxicity in HepG2 human liver cancer cell lines IC10 [2]: 29000 nM; IC90 (Human chymase): 6 nM; IC50 (Human chymase): 1 nM; Human liver Ms stability (survival ratio) [3]: 88%

Question: What does the source list for Cc1c(F)ccc2[nH]cc(Cc3c(-c4ccccc4C(=O)O)nc4ccccn34)c12 [Example 19, 2-{3-[(5-fluoro-4-methyl-1H-indol-3-yl)methyl]imidazo[1,2-a]pyridin-2-yl}benzoic acid]?
Answer: IC50 at 24 h [1]: 247000 nM; Cell toxicity in HepG2 human liver cancer cell lines IC10 [2]: 70000 nM; IC90 (Human chymase): 120 nM; IC50 (Human chymase): 11 nM; Human liver Ms stability (survival ratio) [3]: 100%

Question: Which IC50 at 24 h [1] does the source give for Cc1cccc2c1c(Cc1c(-c3ccc4ccccc4c3C(=O)O)nc3ccccn13)cn2CCN1CCOCC1 [Example 23-(4), 2-[3-({4-methyl-1-[2-(4-morpholinyl)ethyl]-1H-indol-3-yl}methyl)imidazo[1,2-a]pyridin-2-yl]-1-naphthoic acid] here?
Answer: 173000 nM

Question: And the “Cell toxicity” value [2]?
Answer: 79000 nM

Question: What about the IC90 (Human chymase) of the same compound?
Answer: 8 nM

Question: What about the IC50 (Human chymase) of the same compound?
Answer: 2 nM

Question: What about the “Human liver Ms stability (survival ratio)” value [3] of the same compound?
Answer: 100%
